The values that follow come from BindingDB's records for doi:10.1101/2020.09.12.293498 (Pfizer, 2020).

Assay [1] addresses Replicase polyprotein 1ab (Avian infectious bronchitis virus (strain Beaudette CK), UniProt P0C6Y2). The assay is described as follows: FRET protease activity assay. On the procedure: (§1) PF-00835231 was evaluated against 3CLpro from a variety of other coronaviruses representing alpha, beta and gamma groups of Coronaviridae, using biochemical F rster Resonance Energy Transfer (FRET) protease activity assays.

Assay [2] concerns the target Replicase polyprotein 1ab (Human coronavirus HKU1 (isolate N5), UniProt P0C6X4). The assay is described as follows: FRET protease activity assay. As for the experimental part:
as §1

Chain of Replicase polyprotein 1ab (Human coronavirus HKU1 (isolate N5), UniProt P0C6X4) (P0C6X4 3285-3587 limits assumed): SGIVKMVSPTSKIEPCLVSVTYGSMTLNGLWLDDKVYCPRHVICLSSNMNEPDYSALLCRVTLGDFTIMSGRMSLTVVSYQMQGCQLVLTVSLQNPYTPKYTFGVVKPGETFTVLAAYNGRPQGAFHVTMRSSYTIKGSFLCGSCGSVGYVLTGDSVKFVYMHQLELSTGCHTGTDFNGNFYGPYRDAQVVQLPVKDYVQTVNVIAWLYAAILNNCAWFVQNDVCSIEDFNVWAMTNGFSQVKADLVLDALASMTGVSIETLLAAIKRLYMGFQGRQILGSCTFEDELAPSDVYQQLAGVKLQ
Chain of Replicase polyprotein 1ab (Avian infectious bronchitis virus (strain Beaudette CK), UniProt P0C6Y2) (P0C6Y2 2780-3086 limits assumed): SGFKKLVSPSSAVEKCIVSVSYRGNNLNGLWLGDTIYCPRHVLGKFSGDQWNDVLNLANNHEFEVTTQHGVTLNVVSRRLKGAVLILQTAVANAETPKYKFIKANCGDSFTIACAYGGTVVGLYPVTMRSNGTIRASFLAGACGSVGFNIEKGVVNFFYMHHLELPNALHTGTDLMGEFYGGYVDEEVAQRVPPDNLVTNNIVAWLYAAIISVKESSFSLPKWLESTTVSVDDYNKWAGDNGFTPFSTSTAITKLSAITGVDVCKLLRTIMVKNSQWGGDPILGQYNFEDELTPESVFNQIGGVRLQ

`COc1cccc2[nH]c(C(=O)N[C@@H](CC(C)C)C(=O)N[C@@H](C[C@@H]3CCNC3=O)C(=O)CO)cc12` [WO2005113580-Ex-02]: the inhibitory constant (Ki) in assay [1] amounted to 4 nM; in assay [2] it was 0.85 nM.

Usually Ki stands for a dissociation constant, usually derived from enzyme kinetics or from competition with a known ligand.
